This note sets out measurements from ChEMBL document CHEMBL4665635, “Design and synthesis of various quinizarin derivatives as potential anticancer agents in acute T lymphoblastic leukemia” (Bioorg Med Chem, 2019).

Data set [1] concerns Jurkat. As to the kind of experiment: Induction of apoptosis in human Jurkat cells assessed as Notch1 degradation at 2 to 4 uM after 24 hrs by Western blot analysis. The class given is functional, cell-based. Conditions: dose microM 2-4, time 24.0 hrs. For orientation: Immunoblotting shows a protein as a band on a membrane.
Data set [2] relates to K562. Nature of the data set: Cytotoxicity against human K562 cells assessed as inhibition of cell proliferation after 48 hrs by MTT assay. As to conditions: K562, 48 h. The class given is functional, cell-based. A general note: Tetrazolium dyes change colour on reduction, which living cells bring about.
In data set [3] the test system is HL-60. Nature of the data set: Cytotoxicity against human HL60 cells assessed as inhibition of cell proliferation after 48 hrs by MTT assay. Conditions: HL-60, 48 h. The class given is functional, cell-based.
For data set [4], the system named is HEK293. Nature of the data set: Cytotoxicity against human HEK293 cells assessed as inhibition of cell proliferation after 48 hrs by MTT assay. It is filed as cell-based. Conditions: HEK293, 48 h.
For data set [5], the system named is NB-4. As to the kind of experiment: Cytotoxicity against human NB4 cells assessed as inhibition of cell proliferation after 48 hrs by MTT assay. It is filed as functional, cell-based. Conditions: NB-4, 48 h.
In data set [6] the test system is CA46. As to the kind of experiment: Cytotoxicity against human CA46 cells assessed as inhibition of cell proliferation after 48 hrs by MTT assay. It is filed as functional, cell-based. As to conditions: CA46, 48 h.
Data set [7] concerns NALM-6. As to the kind of experiment: Cytotoxicity against human NALM6 cells assessed as inhibition of cell proliferation after 48 hrs by MTT assay. The class given is functional, cell-based. As to conditions: NALM-6, 48 h.
Data set [8] has as its system MOLT-4. As to the kind of experiment: Cytotoxicity against human MOLT4 cells assessed as inhibition of cell proliferation after 48 hrs by MTT assay. The class given is functional, cell-based. As to conditions: MOLT-4, 48 h.
For data set [9], the system named is Jurkat. As to the kind of experiment: Cytotoxicity against human Jurkat cells assessed as inhibition of cell proliferation after 48 hrs by MTT assay. The class given is functional, cell-based.
The subject of data set [10] is MOLT-4. Nature of the data set: Cell cycle arrest in human MOLT-4 cells assessed as increase in cell population at G0/G1 phase at 2 to 4 uM after 24 hrs by propidium iodide/RNase staining based flow cytometric analysis. It is filed as functional. As to conditions: dose microM 2-4, time 24.0 hrs. A general note: In flow cytometry, cells or beads pass a laser one at a time.

Data set [11] concerns Jurkat. Nature of the data set: Cell cycle arrest in human Jurkat cells assessed as increase in cell population at G0/G1 phase at 2 to 4 uM after 24 hrs by propidium iodide/RNase staining based flow cytometric analysis. The class given is functional. Conditions: dose microM 2-4, time 24.0 hrs.
Data set [12] deals with MOLT-4. As to the kind of experiment: Induction of apoptosis in human MOLT-4 cells assessed as Notch1 degradation at 2 to 4 uM after 24 hrs by Western blot analysis. It is filed as functional, cell-based. Conditions: dose microM 2-4, time 24.0 hrs.
Data set [13] relates to MOLT-4. Nature of the data set: Cell cycle arrest in human MOLT-4 cells assessed as decrease in cell population at S phase at 2 to 4 uM after 24 hrs by propidium iodide/RNase staining based flow cytometric analysis. The class given is functional. As to conditions: dose microM 2-4, time 24.0 hrs.
For data set [14], the system named is Jurkat. Nature of the data set: Cell cycle arrest in human Jurkat cells assessed as decrease in cell population at S phase at 2 to 4 uM after 24 hrs by propidium iodide/RNase staining based flow cytometric analysis. The class given is functional. Conditions: dose microM 2-4, time 24.0 hrs.
The subject of data set [15] is MOLT-4. As to the kind of experiment: Induction of apoptosis in human MOLT-4 cells assessed as total apoptotic cells at 2 uM measured after 24 hrs by Annexin V-APC/7-AAD staining based flow cytometric analysis relative to control. It is filed as functional.
In data set [16] the test system is MOLT-4. As to the kind of experiment: Induction of apoptosis in human MOLT-4 cells assessed as total apoptotic cells at 4 uM measured after 24 hrs by Annexin V-APC/7-AAD staining based flow cytometric analysis relative to control. It is filed as functional.
For data set [17], the system named is Jurkat. Nature of the data set: Induction of apoptosis in human Jurkat cells assessed as total apoptotic cells at 2 uM measured after 24 hrs by Annexin V-APC/7-AAD staining based flow cytometric analysis relative to control. The class given is functional.
Data set [18] concerns Jurkat. Nature of the data set: Induction of apoptosis in human Jurkat cells assessed as total apoptotic cells at 4 uM measured after 24 hrs by Annexin V-APC/7-AAD staining based flow cytometric analysis relative to control. It is filed as functional.
The test system of data set [19] is HEK293. Nature of the data set: Induction of ROS generation in HEK293 cells at 1 uM incubated for 12 hrs by flow cytometric analysis relative to control. It is filed as cell-based. Conditions: human, hek293, 12 h.
The subject of data set [20] is HEK293. Nature of the data set: Induction of ROS generation in HEK293 cells at 2 uM incubated for 12 hrs by flow cytometric analysis relative to control. The class given is cell-based. As to conditions: human, hek293, 12 h.
Data set [21] relates to MOLT-4. Nature of the data set: Induction of ROS generation in human MOLT-4 cells at 1 uM incubated for 12 hrs by flow cytometric analysis relative to control. It is filed as functional.
Data set [22] concerns MOLT-4. Nature of the data set: Induction of ROS generation in human MOLT-4 cells at 2 uM incubated for 12 hrs by flow cytometric analysis relative to control. The class given is functional.
For data set [23], the system named is Jurkat. As to the kind of experiment: Induction of ROS generation in human Jurkat cells at 1 uM incubated for 12 hrs by flow cytometric analysis relative to control. It is filed as functional.
In data set [24] the test system is Jurkat. Nature of the data set: Induction of ROS generation in human Jurkat cells at 2 uM incubated for 12 hrs by flow cytometric analysis relative to control. The class given is functional.
Data set [25] relates to MOLT-4. Nature of the data set: Induction of apoptosis in human MOLT-4 cells assessed as activation of PARP cleavage at 2 to 4 uM after 24 hrs by western blot analysis. The class given is functional, cell-based. Conditions: dose microM 2-4, time 24.0 hrs.
Data set [26] has as its system MOLT-4. As to the kind of experiment: Induction of apoptosis in human MOLT-4 cells assessed as caspase 9 activation at 2 to 4 uM incubated for 24 hrs by Western blot analysis. As to conditions: dose microM 2-4, time 24.0 hrs. The class given is functional, cell-based.
Data set [27] has as its system Jurkat. Nature of the data set: Induction of apoptosis in human Jurkat cells assessed as caspase 9 activation at 2 to 4 uM incubated for 24 hrs by Western blot analysis. The class given is functional, cell-based. As to conditions: dose microM 2-4, time 24.0 hrs.
For data set [28], the system named is MOLT-4. Nature of the data set: Induction of apoptosis in human MOLT-4 cells assessed as caspase 3 activation at 2 to 4 uM incubated for 24 hrs by Western blot analysis. It is filed as functional, cell-based. As to conditions: dose microM 2-4, time 24.0 hrs.
Data set [29] concerns Jurkat. As to the kind of experiment: Induction of apoptosis in human Jurkat cells assessed as caspase 3 activation at 2 to 4 uM incubated for 24 hrs by Western blot analysis. It is filed as functional, cell-based. As to conditions: dose microM 2-4, time 24.0 hrs.
Data set [30] relates to Jurkat. As to the kind of experiment: Induction of apoptosis in human Jurkat cells assessed as activation of PARP cleavage at 2 to 4 uM after 24 hrs by western blot analysis. Conditions: dose microM 2-4, time 24.0 hrs. The class given is functional, cell-based.
In data set [31] the test system is MOLT-4. Nature of the data set: Induction of apoptosis in human MOLT-4 cells assessed as increase in cleaved caspase-3 levels at 4 uM after 24 hrs by Alexafluor-488 goat anti-rabbitIgG staining based flow cytometric analysis relative to control. It is filed as functional.
The subject of data set [32] is Jurkat. Nature of the data set: Induction of apoptosis in human Jurkat cells assessed as increase in cleaved caspase-3 levels at 4 uM after 24 hrs by Alexafluor-488 goat anti-rabbitIgG staining based flow cytometric analysis relative to control. It is filed as functional.
The test system of data set [33] is MOLT-4. As to the kind of experiment: Induction of apoptosis in human MOLT-4 cells assessed as decrease in Bcl-2 protein expression at 2 to 4 uM after 24 hrs by Western blot analysis. The class given is functional, cell-based. Conditions: dose microM 2-4, time 24.0 hrs.
Data set [34] deals with Jurkat. Nature of the data set: Induction of apoptosis in human Jurkat cells assessed as decrease in Bcl-2 protein expression at 2 to 4 uM after 24 hrs by Western blot analysis. Conditions: dose microM 2-4, time 24.0 hrs. The class given is functional, cell-based.
In data set [35] the test system is MOLT-4. As to the kind of experiment: Induction of apoptosis in human MOLT-4 cells assessed as c-myc degradation at 2 to 4 uM after 24 hrs by Western blot analysis. It is filed as functional, cell-based. As to conditions: dose microM 2-4, time 24.0 hrs.
The test system of data set [36] is Jurkat. As to the kind of experiment: Induction of apoptosis in human Jurkat cells assessed as c-myc degradation at 2 to 4 uM after 24 hrs by Western blot analysis. The class given is functional, cell-based. Conditions: dose microM 2-4, time 24.0 hrs.
Data set [37] is described as follows: Solubility in water by spectrophotometry. It is filed as physicochemical.

Structures can show the parent of a compound that is named as a salt. Calls of active or inactive are those of the source. The rule behind the calls is not given here. Some results are limits rather than exact numbers.

As a reminder, the IC50 is the midpoint of a concentration-inhibition curve. The term solubility denotes the concentration that dissolves in the medium under given conditions. Turning to `CCCCCCCC[N+](C)(CCCCCCCC)Cc1ccc(COc2ccc(OCc3ccc(CBr)cc3)c3c2C(=O)c2ccccc2C3=O)cc1.[Br-]`, the Activity result in data set [1] is “Dose-dependent effect”; in data set [12] it was “Dose-dependent effect”; in data set [15] it was 22.76%; in data set [16] it was 39.67%; in [17], 25.57%; in data set [18], 48.96%. Besides, the Activity in data set [19] came out at 2.78%; in data set [20], 62.23%; in [21] it was 22.2%; in data set [22], 73.97%; in [23], 18.63%; in [24], 38.1%. The Activity in data set [31] is 33%; in data set [32], 43.4%; in [33], “Dose-dependent effect”; in data set [34], “Dose-dependent effect”; in data set [35] it was “Dose-dependent effect”; in [36], “Dose-dependent effect”. Moreover, the IC50 in [2] turned out to be 2310 nM; in [3], 1400 nM; in [4], 2440 nM; in data set [5], 2400 nM; in [6], 3510 nM; in [7], 1240 nM. Further, the IC50 came out at 2610 nM in data set [8] and 2800 nM in data set [9]. Further, the outcome in data set [10], in [11], in [13], in data set [14], in data set [25] and in data set [26] was Active. Besides, the outcome in [27], in data set [28], in [29] and in data set [30] was Active. The molecule also came in with a solubility in data set [37] of under 10 µg/mL.
For the molecule `Br.Br.N=C(N)SCc1ccc(COc2ccc(OCc3ccc(CSC(=N)N)cc3)c3c2C(=O)c2ccccc2C3=O)cc1`, the IC50 in data set [2] was 1810 nM; in data set [3], 3350 nM; in data set [4] it was 3190 nM. Further, in data set [37], the solubility turned out to be 59.3 µg/mL.
Consider `CCCCCCCC[P+](CCCCCCCC)(CCCCCCCC)Cc1ccc(COc2ccc(OCc3ccc(CBr)cc3)c3c2C(=O)c2ccccc2C3=O)cc1`, for which the IC50 came to 1240 nM in data set [2], 900 nM in data set [3] and 2170 nM in [4].
On the same counts, the results for `CCCCCCCC[N+](C)(CCCCCCCC)Cc1ccc(COc2ccc(OCc3ccc(C[N+](C)(CCCCCCCC)CCCCCCCC)cc3)c3c2C(=O)c2ccccc2C3=O)cc1` are 6780 nM, 3490 nM and 2990 nM.
On the same counts, the results for `O=C1c2ccccc2C(=O)c2c(OCc3ccc(CBr)cc3)ccc(OCc3ccc(CBr)cc3)c21` are over 40000 nM, over 40000 nM and over 40000 nM.
For `CCCCCCCC[P+](CCCCCCCC)(CCCCCCCC)Cc1ccc(COc2ccc(OCc3ccc(CSC(=N)N)cc3)c3c2C(=O)c2ccccc2C3=O)cc1`, in that order: 8040 nM, 5160 nM and 6660 nM.
For the molecule `COc1cccc2c1C(=O)c1c(O)c3c(c(O)c1C2=O)C[C@@](O)(C(=O)CO)C[C@@H]3O[C@H]1C[C@H](N)[C@H](O)[C@H](C)O1` [DOXORUBICIN HYDROCHLORIDE], the IC50 is 630 nM in data set [2], 140 nM in data set [3] and 370 nM in data set [4].
On to `CCCCCCCC[N+](C)(CCCCCCCC)Cc1cc(O)c2c(c1)Cc1cccc(O)c1C2=O`, for which the IC50 in data set [2], in data set [3] and in [4] was over 40000 nM in each case.
Consider `CCCCCCCC[N+](C)(CCCCCCCC)Cc1cc(O)c2c(c1)C(=O)c1cccc(O)c1C2=O`, for which the figures for the IC50 in [2], in data set [3] and in data set [4] were 2780 nM, 1110 nM and 2200 nM, respectively.
On to `CCCCCCCC[N+](C)(CCCCCCCC)Cc1ccc(COc2ccc(OCc3ccc(C[N+](CCO)(CCO)CCO)cc3)c3c2C(=O)c2ccccc2C3=O)cc1.[Br-].[Br-]`, for which the IC50 in data set [2] was determined as 10900 nM; in [3], 7890 nM; in data set [4] it was 9430 nM. The molecule also yielded a solubility in data set [37] of 28200 µg/mL.
